# Reference: patent US20210252028A1, “SYNTHETIC COMPOSITION FOR MICROBIOTA MODULATION” (Glycom A/S, priority 2016, published 2021)
# Key:
# [1] = tested on: B. adolescentis phylogenetic group; test: ITS profiling of the Bifidobacterium community in faeces of healthy adults after 2 weeks of HMO consumption; type: in vivo, human; conditions: for percentage increase of B. adolescentis phylogenetic group: healthy adults, 2 weeks, faecal analyses
# Description: (§1) A total of 100 male and female healthy adults are recruited to participate in the study. After a screening visit and run-in period of 1-2 weeks, the participants are selected and randomized into ten groups, each of 10 subjects. One group is administered a placebo product containing 2 grams of glucose. The remaining 9 groups are administered treatment product containing a) 20 g of 2′-FL, b) 10 g of 2′-FL, c) 5 g of 2′-FL, d) 20 g of LNnT, e) 10 g of LNnT, f) 5 g of LNnT, g) 20 g of a 2:1 mixture of 2′-FL and LNnT, h) 10 g of a 2:1 mixture of 2′-FL and LNnT, and i) 5 g of a 2:1 mixture of 2′-FL and LNnT for 2 weeks (the amounts correspond to a daily dosis). The placebo and treatment products are in powder form in a unit dosage container.
# (§2) The study runs for 2 weeks with the participants consuming either a placebo or a treatment product daily. Participants are instructed to consume the products in the morning with breakfast. Compliance is monitored through the interactive internet enabled system.
# (§3) To assess the Bifidobacterium community, ITS profiling of DNA samples is performed according to Milani et al. FEMS Microbiol. Ecol. 90, 493 (2014). […] Both B. adolescentis and B. pseudocatenulatum are members of the B. adolescentis phylogenetic group. It can be seen that oral ingestion of the HMOs clearly increases the abundance of B. adolescentis and/or B. pseudocatenulatum in the microbiota of healthy adults, as well as their relative abundance compared to the totality of other Bifidobacterium species.
# [2] = tested on: totality of B. longum + B. bifidum + B. animalis lactis + B. angulatum; test: as above; type: in vivo, human; conditions: faecal analyses
# Description: as §1, §2, §3
molecule,measurement,setting,value
"CC(=O)N[C@H]1[C@H](O[C@H]2[C@@H](O)[C@@H](CO)O[C@@H](O[C@H]3[C@H](O)[C@@H](O)C(O)O[C@@H]3CO)[C@@H]2O)O[C@H](CO)[C@@H](O[C@@H]2O[C@H](CO)[C@H](O)[C@H](O)[C@H]2O)[C@@H]1O (mixture of isomers) [LNnT, lacto-N-neotetraose]",percentage increase of B. adolescentis phylogenetic group,[1]; daily dose 5 g,90%
same,percentage increase of B. adolescentis phylogenetic group,[1]; daily dose 10 g,195%
same,percentage increase of B. adolescentis phylogenetic group,[1]; daily dose 20 g,185%
same,percentage increase of totality of B. longum + B. bifidum + B. animalis lactis + B. angulatum,[2]; daily dose 5 g,50%
same,percentage increase of totality of B. longum + B. bifidum + B. animalis lactis + B. angulatum,[2]; daily dose 10 g,130%
same,percentage increase of totality of B. longum + B. bifidum + B. animalis lactis + B. angulatum,[2]; daily dose 20 g,105%
2′-fucosyllactose [2′-FL],abundance of B. adolescentis and/or B. pseudocatenulatum and relative abundance compared to the totality of other Bifidobacterium species,[1]; healthy adults carrying the FUT2 mutation compared with secretors,increases in a manner similar to those in secretors
same,percentage increase of B. adolescentis phylogenetic group,[1]; daily dose 5 g,50%
same,percentage increase of B. adolescentis phylogenetic group,[1]; daily dose 10 g,325%
same,percentage increase of B. adolescentis phylogenetic group,[1]; daily dose 20 g,120%
same,percentage increase of totality of B. longum + B. bifidum + B. animalis lactis + B. angulatum,[2]; daily dose 5 g,0%
same,percentage increase of totality of B. longum + B. bifidum + B. animalis lactis + B. angulatum,[2]; daily dose 10 g,20%
same,percentage increase of totality of B. longum + B. bifidum + B. animalis lactis + B. angulatum,[2]; daily dose 20 g,15%
